In ChEMBL document CHEMBL1130263 (J Med Chem, 1997):

Experiments:
[1] = molecular target: T1, Muscarinic acetylcholine receptor M1 (Homo sapiens, UniProt P11229); assay: Inhibitory binding of [3H]pirenzepine to human Muscarinic acetylcholine receptor M1 in membranes from CHO-K1 cells; format: cell-based
T1 sequence (P11229 whole entry): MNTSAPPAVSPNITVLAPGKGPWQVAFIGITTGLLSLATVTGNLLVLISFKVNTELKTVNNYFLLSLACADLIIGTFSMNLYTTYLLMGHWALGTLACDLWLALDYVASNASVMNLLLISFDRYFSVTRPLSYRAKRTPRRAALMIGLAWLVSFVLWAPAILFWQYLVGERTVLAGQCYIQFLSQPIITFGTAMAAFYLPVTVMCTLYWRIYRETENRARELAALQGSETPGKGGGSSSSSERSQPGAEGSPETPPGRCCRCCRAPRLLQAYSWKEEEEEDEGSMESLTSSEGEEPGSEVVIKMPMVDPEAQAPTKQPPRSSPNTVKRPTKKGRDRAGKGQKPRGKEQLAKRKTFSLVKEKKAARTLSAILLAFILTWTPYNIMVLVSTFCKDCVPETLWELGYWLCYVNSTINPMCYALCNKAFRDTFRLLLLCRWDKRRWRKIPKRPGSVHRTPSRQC

[2] = molecular target: T2, Adrenergic receptor alpha-1 (Rattus norvegicus, UniProt P15823+P23944+P43140); assay: Inhibition of [3H]prazosin binding to Alpha-1 adrenergic receptor in rat brain membranes
T2 sequence (P15823 whole entry): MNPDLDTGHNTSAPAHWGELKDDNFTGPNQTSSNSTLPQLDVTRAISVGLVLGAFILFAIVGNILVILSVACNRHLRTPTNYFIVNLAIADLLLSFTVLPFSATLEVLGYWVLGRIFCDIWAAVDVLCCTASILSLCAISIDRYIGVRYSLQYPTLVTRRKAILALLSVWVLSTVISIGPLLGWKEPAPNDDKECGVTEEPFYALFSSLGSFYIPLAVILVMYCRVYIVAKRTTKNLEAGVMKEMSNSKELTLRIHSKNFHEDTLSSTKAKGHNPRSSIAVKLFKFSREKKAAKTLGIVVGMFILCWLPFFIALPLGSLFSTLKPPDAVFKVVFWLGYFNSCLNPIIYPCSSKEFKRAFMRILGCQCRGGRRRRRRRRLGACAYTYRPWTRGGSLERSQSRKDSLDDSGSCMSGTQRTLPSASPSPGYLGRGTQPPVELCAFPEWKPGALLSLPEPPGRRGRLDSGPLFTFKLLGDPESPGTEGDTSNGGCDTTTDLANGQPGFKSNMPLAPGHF
T2 sequence (P23944 whole entry): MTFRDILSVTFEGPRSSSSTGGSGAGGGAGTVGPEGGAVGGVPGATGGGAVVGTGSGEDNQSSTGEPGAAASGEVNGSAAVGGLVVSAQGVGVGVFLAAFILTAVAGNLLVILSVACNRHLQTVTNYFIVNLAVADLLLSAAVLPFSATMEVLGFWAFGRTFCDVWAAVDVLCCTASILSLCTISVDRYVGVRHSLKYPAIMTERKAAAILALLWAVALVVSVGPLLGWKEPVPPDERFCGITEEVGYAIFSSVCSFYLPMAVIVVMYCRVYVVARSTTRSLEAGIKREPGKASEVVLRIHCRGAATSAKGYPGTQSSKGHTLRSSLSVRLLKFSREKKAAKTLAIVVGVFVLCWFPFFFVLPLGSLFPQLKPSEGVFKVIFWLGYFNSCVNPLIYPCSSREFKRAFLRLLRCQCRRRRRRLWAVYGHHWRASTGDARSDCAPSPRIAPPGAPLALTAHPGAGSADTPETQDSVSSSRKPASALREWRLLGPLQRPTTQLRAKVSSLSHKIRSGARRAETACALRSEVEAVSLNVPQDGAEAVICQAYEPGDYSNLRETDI
T2 sequence (P43140 whole entry): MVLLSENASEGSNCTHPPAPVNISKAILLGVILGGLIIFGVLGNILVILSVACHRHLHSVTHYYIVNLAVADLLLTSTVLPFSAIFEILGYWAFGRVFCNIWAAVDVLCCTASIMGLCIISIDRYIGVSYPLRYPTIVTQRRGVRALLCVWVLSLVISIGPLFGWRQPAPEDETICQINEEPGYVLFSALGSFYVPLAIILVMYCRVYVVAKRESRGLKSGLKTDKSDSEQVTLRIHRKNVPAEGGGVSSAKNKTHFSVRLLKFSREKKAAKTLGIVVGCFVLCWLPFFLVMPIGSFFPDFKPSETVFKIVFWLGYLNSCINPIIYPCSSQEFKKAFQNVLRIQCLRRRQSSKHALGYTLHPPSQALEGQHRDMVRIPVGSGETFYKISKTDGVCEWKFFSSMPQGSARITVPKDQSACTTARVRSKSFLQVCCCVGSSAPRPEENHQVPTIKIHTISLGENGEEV

[3] = molecular target: T3, 5-hydroxytryptamine receptor 2C (Rattus norvegicus, UniProt P08909)
T3 sequence (P08909 whole entry): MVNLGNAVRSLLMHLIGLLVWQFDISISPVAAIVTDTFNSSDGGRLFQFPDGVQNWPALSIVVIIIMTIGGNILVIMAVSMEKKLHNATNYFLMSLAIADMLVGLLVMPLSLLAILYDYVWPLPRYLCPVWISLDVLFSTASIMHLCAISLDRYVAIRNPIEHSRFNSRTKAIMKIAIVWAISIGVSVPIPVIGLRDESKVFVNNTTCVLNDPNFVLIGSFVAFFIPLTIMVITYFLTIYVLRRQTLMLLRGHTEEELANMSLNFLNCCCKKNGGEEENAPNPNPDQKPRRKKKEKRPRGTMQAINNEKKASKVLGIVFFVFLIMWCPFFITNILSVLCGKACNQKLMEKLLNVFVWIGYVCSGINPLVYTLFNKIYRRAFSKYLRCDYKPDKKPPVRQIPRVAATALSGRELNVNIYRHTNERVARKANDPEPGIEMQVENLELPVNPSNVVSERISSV
Description: Inhibition of [3H]mesulergine binding to 5-hydroxytryptamine 2C receptor in rat brain membranes

D(1A) dopamine receptor = D(1A) dopamine receptor (Rattus norvegicus, UniProt P18901)
Description: Inhibitory binding of [3H]SCH-23390 to Dopamine receptor D1 in membranes from rat corpus striatum

Histamine H1 receptor = Histamine H1 receptor (Rattus norvegicus, UniProt P31390); assay: Inhibitory binding of [3H]mepyramine to histamine H1 receptors in rat brain membranes; format: cell membranes
[4] = molecular target: 5-hydroxytryptamine receptor 2A (Rattus norvegicus, UniProt P14842); assay: Inhibition of [3H]ketanserin binding to 5-hydroxytryptamine 2A receptor from rat brain
Rattus norvegicus [5] = assay: Locomotor activity in male Wistar rats after a dose of 3 uM/kg, 30 min before 1 mg/kg of apomorphine administration; format: functional
Rattus norvegicus [6] = assay: Catalytic action on male Wistar rats after subcutaneous administration of 10 µmol/kg dose of compound
Rattus norvegicus [7] = assay: Locomotor activity in male Wistar rats after a dose of 10 uM/kg, 30 min before 1 mg/kg of apomorphine administration; format: functional
Rattus norvegicus [8] = assay: Locomotor activity in male Wistar rats after a dose of 30 uM/kg, 30 min before 1 mg/kg of apomorphine administration; format: functional
Rattus norvegicus [9] = assay: Locomotor activity in male Wistar rats after a dose of 100 uM/kg, 30 min before 1 mg/kg of apomorphine administration; format: functional
Rattus norvegicus [10] = assay: Catalytic action on male Wistar rats after subcutaneous administration of 100 µmol/kg dose of compound
Rattus norvegicus [11] = assay: Locomotor activity in male Wistar rats after a dose of 0.3 uM/kg, 30 min before 1 mg/kg of apomorphine administration; format: functional
Rattus norvegicus [12] = assay: Catalytic action on male Wistar rats after subcutaneous administration of 0.3 µmol/kg dose of compound
Rattus norvegicus [13] = assay: Locomotor activity in male Wistar rats after a dose of 1.0 uM/kg, 30 min before 1 mg/kg of apomorphine administration; format: functional
Rattus norvegicus [14] = assay: Catalytic action on male Wistar rats after subcutaneous administration of 30 µmol/kg dose of compound
Rattus norvegicus [15] = assay: Locomotor activity in male Wistar rats after a dose of 3.0 uM/kg, 30 min before 1 mg/kg of apomorphine administration; format: functional
Rattus norvegicus [16] = assay: Catalytic action on male Wistar rats after subcutaneous administration of 1.0 µmol/kg dose of compound
Rattus norvegicus [17] = assay: Catalytic action on male Wistar rats after subcutaneous administration of 3.0 µmol/kg dose of compound
Rattus norvegicus [18] = assay: Catalytic action on male Wistar rats after subcutaneous administration of 0.03 µmol/kg dose of compound
Rattus norvegicus [19] = assay: Locomotor activity in male Wistar rats after a dose of 0.03 uM/kg, 30 min before 1 mg/kg of apomorphine administration; format: functional
Rattus norvegicus [20] = assay: Locomotor activity in male Wistar rats after a dose of 0.003 uM/kg, 30 min before 1 mg/kg of apomorphine administration; format: functional
Rattus norvegicus [21] = assay: Catalytic action on male Wistar rats after subcutaneous administration of 0.003 µmol/kg dose of compound

Chain of D(1A) dopamine receptor (P18901 whole entry): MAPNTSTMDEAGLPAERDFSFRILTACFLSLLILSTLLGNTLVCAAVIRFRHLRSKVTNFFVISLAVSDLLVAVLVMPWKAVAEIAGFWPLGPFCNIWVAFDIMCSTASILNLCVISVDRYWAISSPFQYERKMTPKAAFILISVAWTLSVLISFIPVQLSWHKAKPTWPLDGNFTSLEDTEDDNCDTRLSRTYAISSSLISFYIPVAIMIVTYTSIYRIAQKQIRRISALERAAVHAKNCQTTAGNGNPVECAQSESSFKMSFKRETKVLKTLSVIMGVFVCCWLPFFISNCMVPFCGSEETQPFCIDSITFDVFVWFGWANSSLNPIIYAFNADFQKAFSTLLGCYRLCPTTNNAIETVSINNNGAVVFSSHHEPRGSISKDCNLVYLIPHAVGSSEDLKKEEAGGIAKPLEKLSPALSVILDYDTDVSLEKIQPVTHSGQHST
Chain of 5-hydroxytryptamine receptor 2A (P14842 whole entry): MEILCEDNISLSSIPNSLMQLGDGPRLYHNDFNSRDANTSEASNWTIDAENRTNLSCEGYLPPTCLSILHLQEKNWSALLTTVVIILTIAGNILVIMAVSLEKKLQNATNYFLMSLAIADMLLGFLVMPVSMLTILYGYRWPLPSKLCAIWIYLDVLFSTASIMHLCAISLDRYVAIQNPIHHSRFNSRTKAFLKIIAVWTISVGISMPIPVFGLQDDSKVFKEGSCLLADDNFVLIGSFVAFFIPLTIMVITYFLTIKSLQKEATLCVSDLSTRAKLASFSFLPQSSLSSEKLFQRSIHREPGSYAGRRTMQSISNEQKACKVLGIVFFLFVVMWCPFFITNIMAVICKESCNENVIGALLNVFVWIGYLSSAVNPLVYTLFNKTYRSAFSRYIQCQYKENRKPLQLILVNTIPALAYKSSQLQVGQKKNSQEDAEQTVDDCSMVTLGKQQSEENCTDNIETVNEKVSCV
Chain of Histamine H1 receptor (P31390 whole entry): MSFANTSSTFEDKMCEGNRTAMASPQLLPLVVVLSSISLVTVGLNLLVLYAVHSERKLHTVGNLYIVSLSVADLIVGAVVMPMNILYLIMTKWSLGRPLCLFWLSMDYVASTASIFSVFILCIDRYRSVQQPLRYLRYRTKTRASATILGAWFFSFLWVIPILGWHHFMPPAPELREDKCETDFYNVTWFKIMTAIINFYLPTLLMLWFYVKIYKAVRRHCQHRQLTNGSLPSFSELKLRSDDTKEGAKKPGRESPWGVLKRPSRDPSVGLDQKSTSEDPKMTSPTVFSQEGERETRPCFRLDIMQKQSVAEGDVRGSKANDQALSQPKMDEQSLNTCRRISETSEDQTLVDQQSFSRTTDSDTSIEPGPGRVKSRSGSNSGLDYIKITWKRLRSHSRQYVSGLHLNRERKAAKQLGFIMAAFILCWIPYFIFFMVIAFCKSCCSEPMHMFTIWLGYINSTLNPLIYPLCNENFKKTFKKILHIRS

| IC50 [1] [nM] | IC50 [2] [nM] | IC50 [3] [nM] | IC50 (D(1A) dopamine receptor) [nM] | IC50 [4] [nM] | SMILES | Catalyptic action (Rattus norvegicus [6]) | Locomotor activity (Rattus norvegicus [7]) | also measured |
| --- | --- | --- | --- | --- | --- | --- | --- | --- |
| 27 | 1200 | 440 | 9800 |  | CN1CCN(C2=Nc3cc(O)ccc3Nc3ccccc32)CC1 |  |  |  |
| 35 | > 1000 | 620 | 930 | 550 | CN1CCN(C2=Nc3cc(OS(=O)(=O)C(F)(F)F)ccc3Nc3ccccc32)CC1 |  |  | IC50 (Histamine H1 receptor): 720 nM |
| 37 | 260 | 81 | 550 | 35 | CN1CCN(C2=Nc3ccccc3Nc3ccc(O)cc32)CC1 |  |  |  |
| 1200 | 12 | 34 | 64 | 8 | CN1CCN(C2=Nc3ccccc3Nc3ccc(OS(=O)(=O)C(F)(F)F)cc32)CC1 | 0 | 102 | Locomotor activity (Rattus norvegicus [5]): 87; IC50 (Histamine H1 receptor): 47 nM; Locomotor activity (Rattus norvegicus [8]): 22; Locomotor activity (Rattus norvegicus [9]): 8; Catalyptic action (Rattus norvegicus [10]): 0 |
| 39 | 120 | 21 | 550 | 12 | COc1ccc2c(c1)C(N1CCN(C)CC1)=Nc1ccccc1N2 |  |  |  |
|  |  |  |  |  | CN1CCN(C2=Nc3cc(Cl)ccc3Nc3ccccc32)CC1 [CLOZAPINE] | 0 | 98 | Locomotor activity (Rattus norvegicus [9]): 7; Catalyptic action (Rattus norvegicus [10]): 0 |
| 6 | 64 |  | 11 |  | CN1CCN(C2=Nc3ccccc3Nc3ccc(Cl)cc32)CC1 [ISOCLOZAPINE] | 25 | 3 | Locomotor activity (Rattus norvegicus [11]): 114; Catalyptic action (Rattus norvegicus [12]): 0; Locomotor activity (Rattus norvegicus [13]): 82; Locomotor activity (Rattus norvegicus [8]): 3; Catalyptic action (Rattus norvegicus [14]): 75; Locomotor activity (Rattus norvegicus [15]): 65; Catalyptic action (Rattus norvegicus [16]): 0; Catalyptic action (Rattus norvegicus [17]): 0 |
|  |  |  |  |  | O=C(CCCN1CCC(O)(c2ccc(Cl)cc2)CC1)c1ccc(F)cc1 [HALOPERIDOL] |  |  | Locomotor activity (Rattus norvegicus [11]): 1; Catalyptic action (Rattus norvegicus [12]): 100; Catalyptic action (Rattus norvegicus [18]): 75; Locomotor activity (Rattus norvegicus [19]): 9; Locomotor activity (Rattus norvegicus [20]): 88; Catalyptic action (Rattus norvegicus [21]): 0 |
| 19 | 240 | 86 | 7400 |  | COc1ccc2c(c1)N=C(N1CCN(C)CC1)c1ccccc1N2 |  |  |  |
